Columns and labels:
[1] = system: RWPE2 prostate cancer cells; test: Alamar Blue proliferation assay, RWPE2; type: cell-based, human; details: 30 nM, normalized to negative control miRNA (100% proliferation)
Text: The inventors assessed the therapeutic effect of hsa-miR-126 for prostate cancer by using 4 individual human prostate cancer cell lines. To measure cellular proliferation of prostate cancer cells, the following prostate cancer cell lines were used: PPC-1, derived from a bone metastasis; Du145, derived from a brain metastasis; RWPE2, derived from prostate cells immortalized by human papillomavirus 18 and transformed by the K-RAS oncogene; and LNCaP, derived from a lymph node metastasis (Stone et al., 1978; Horoszewicz et al., 1980; Brothman et al., 1991; Pretlow et al., 1993; Bello et al., 1997). PPC-1 and Du145 cells lack expression of the prostate-specific antigen (PSA) and are independent of androgen receptor (AR) signaling. In contrast, RWPE2 and LNCaP cells test positive for PSA and AR. Cells were transfected with synthetic hsa-miR-126 (Pre-miR™-hsa-miR-126, Ambion cat. no. AM 17100) or negative control miRNA (NC; Pre-miR™ microRNA Precursor Molecule-Negative Control #2; Ambion cat. no. AM17111) in a 96-well format using a lipid-based transfection reagent. […] Proliferation was assessed 4-7 days post-transfection using Alamar Blue™ (Invitrogen) following the manufacturer's instructions. […] Fluorescent light units (FLU) were measured after 3 hours, normalized to the control, and plotted as percent change in proliferation. […]

[2] = system: PPC-1 prostate cancer cells; test: Long-term growth curve with repeated electroporation, PPC-1; type: cell-based, human
Text: (§1) To evaluate the therapeutic activity of hsa-miR-126 over an extended period of time, we conducted growth curve experiments in the presence of miRNA for up to 21 days. Since in vitro transfections of naked interfering RNAs, such as synthetic miRNA, are transient by nature and compromised by the dilution of the oligonucleotide during ongoing cell divisions, we administered miRNA at multiple time points (Bartlett and Davis, 2006; Bartlett and Davis, 2007). To accommodate miRNA delivery into a large quantity of cells, we employed the electroporation method to delivery hsa-miR-126 or negative control miRNA into PPC-1, PC3 and Du145 human prostate cancer cells. Briefly, 1×10^6 PPC-1 or PC3 cells, and 0.5×10^6 Du145 cells were electroporated with 1.6 μM hsa-miR-126 or negative control using the BioRad Gene Pulser Xcell™ instrument (BioRad Laboratories Inc., Hercules, Calif., USA), seeded and propagated in regular growth medium. Experiments with PC3 and Du145 cells were carried out in triplicates. When the control cells reached confluence (days 4 and 11 for PPC-1; days 7 and 14 for PC3 and Du145), cells were harvested, counted and electroporated again with the respective miRNAs. […] The population doubling was calculated from these electroporation events using the formula PD=ln(Nf/N0)/ln2, and cell counts were extrapolated and plotted on a linear scale (FIGS. 10-12). […]

[3] = system: PC3 prostate cancer cells; test: Long-term growth curve with repeated electroporation, PC3; type: cell-based, human
Text: as §1

[4] = system: MCF12A, BT549, TE353SK, 22Rv1, A549, CRL-5826, HTB-57 cells; details: cited from earlier work
[5] = system: human leukemia cells (Jurkat) and normal human T cells; details: cited from earlier work

Q: With “hsa-miR-126 (UCGUACCGUGAGUAAUAAUGC; synthetic pre-miR form, further chemistry not given here) [Synthetic hsa-miR-126 (Pre-miR™-hsa-miR-126, Ambion cat. no. AM17100)]” as the substance, how does the “% proliferation” value [1] read?
A: The value was 91.82%.

Q: And the “inhibition of cell growth” value ([2]; PPC-1, day 18, 1.6 μM repeated electroporation, relative to control cells (100%))?
A: The value was 91.3%.

Q: And the remaining cells ([2]; PPC-1, day 18, relative to control cells (100%))?
A: The remaining cells was 8.7%.

Q: What about the “inhibition of cell growth” value ([3]; PC3, day 21, 1.6 μM repeated electroporation, relative to control cells (100%)) of the same substance?
A: The value was 90.7%.

Q: What about the remaining cells ([3]; PC3, day 21, relative to control cells (100%)) of the same substance?
A: Its remaining cells is 9.3%.

Q: What about the effect on proliferation [4] of the same substance?
A: The effect on proliferation was “decreasing proliferation”.

Q: What about the effect on proliferation [5] of the same substance?
A: The effect on proliferation was “increasing the proliferation”.

Reference: patent US20090131354A1, “miR-126 REGULATED GENES AND PATHWAYS AS TARGETS FOR THERAPEUTIC INTERVENTION” (priority 2007, published 2009)
